Data taken from US11098029B2, “5-alkyl pyrrolidine orexin receptor agonists” (Merck Sharp & Dohme Corp., priority 2019, dated 2021).

Target: human OX2R (Homo sapiens (Human), UniProt O43614)
Assay: IPOne (IP-One, Cisbio) orexin receptor agonist assay in CHO cells expressing human OX2R
Conditions: for Emax: CHO; for Emax / Emax (%): hOX2R_IP, percentage of mean max effect of a reference compound at 1 uM (100% activity vs Orexin A)
Description: Both the OX1R and/or OX2R G-coupled protein receptors (GPCRs) couple through the Gaq signaling pathway, which ultimately promotes calcium mobilization via inositol triphosphate (IP3) production.
In a typical experiment, the OX1 and OX2 receptor agonist activity is determined in accordance with the following general experimental method. Chinese hamster ovary (CHO) cells expressing human OX1R and/or the human OX2R were grown in Iscove's modified DMEM containing glutaMAX®, 1% G418, 100 U/mL penicillin, 100 μg/mL streptomycin and 10% heat-inactivated qualified fetal bovine serum (FBS). […] During this incubation, IP-one detection reagents were prepared (38:1:1 lysis buffer:D2:AB-cryptate reagents).
For each compound, data were fit to a four parameter logistic fit (ActivityBase software) and the EC50 was reported as the inflection point of the resulting curve.

Sequence of human OX2R (O43614 whole entry): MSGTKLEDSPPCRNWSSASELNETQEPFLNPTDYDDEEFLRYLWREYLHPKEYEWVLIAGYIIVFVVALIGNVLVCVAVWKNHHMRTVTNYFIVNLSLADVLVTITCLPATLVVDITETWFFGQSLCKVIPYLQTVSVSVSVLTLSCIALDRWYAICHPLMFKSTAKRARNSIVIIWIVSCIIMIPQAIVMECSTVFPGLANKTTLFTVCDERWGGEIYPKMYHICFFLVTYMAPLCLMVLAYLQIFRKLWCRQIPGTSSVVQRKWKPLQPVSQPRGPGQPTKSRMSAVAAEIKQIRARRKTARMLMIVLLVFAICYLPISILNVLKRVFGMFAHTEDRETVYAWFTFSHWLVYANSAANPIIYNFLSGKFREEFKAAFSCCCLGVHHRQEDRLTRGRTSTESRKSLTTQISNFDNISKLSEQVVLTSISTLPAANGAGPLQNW

SMILES	IC50 [nM]	Emax [%]	Emax (%)
CCC1(CC)C[C@@H](NS(C)(=O)=O)[C@@H](CO[C@H]2CC[C@@H](c3ccccc3)CC2)N1C(=O)OC (relative stereo) [Example 42, methyl (CIS)-2,2-diethyl-4-(methylsulfonamido)-5-((((CIS)-4-phenylcyclohexyl)oxy)methyl)-pyrrolidine-1-carboxylate]	316	100	
CCC1CC(NS(C)(=O)=O)C(CO[C@H]2CC[C@@H](c3ccccc3)CC2)N1C(=O)OC (stereo partly drawn) [Example 40, methyl (CIS)-5-ethyl-3-(methylsulfonamido)-2-((((CIS)-4-phenylcyclohexyl)oxy)-methyl)pyrrolidine-1-carboxylate]			100
CCOC(=O)N1[C@H](C)C[C@H](NS(C)(=O)=O)[C@@H]1COC1CCC(C(C)C)CC1 (stereo partly drawn) [Example 7, ethyl (2R,3S,5R)-2-(((4-isopropylcyclohexyl)oxy)meth-yl)-5-methyl-3-(methylsulfonamido)pyrrolidine-1-carboxylate]	45.5	100	
COC(=O)N1[C@H](C)C[C@H](NS(=O)(=O)N(C)C)[C@@H]1CO[C@H]1CC[C@@H](c2cc(F)cc(F)c2)CC1 [Example 32, methyl (2R,3S,5R)-2-((((1s,4S)-4-(3,5-difluorophenyl)cyclohexyl)oxy)methyl)-3-((N,N-dimethylsulfamoyl)amino)-5-methylpyrrolidine-1-carboxylate]		101	
CNS(=O)(=O)N[C@H]1C[C@@H](C)N(C(=O)OCC(F)F)[C@H]1COC1CCC(C(C)C)CC1 (stereo partly drawn) [Example 13, 2,2-difluoroethyl (2R,3S,5R)-2-(((4-isopropylcyclohexyl)oxy)meth-yl)-5-methyl-3-((N-methylsulfamoyl)amino)pyrro-lidine-1-carboxylate]			101
COC(=O)N1C(CO)CC(NS(C)(=O)=O)C1CO[C@H]1CC[C@@H](c2ccccc2)CC1 (stereo partly drawn) [Example 50, methyl (CIS)-5-(hydroxymethyl)-3-(methylsulfonamido)-2-((((CIS)-4-phenylcyclohexyl)oxy)-methyl)pyrrolidine-1-carboxylate]			101
COC(=O)N1[C@H](C)C[C@H](NS(=O)(=O)N(C)C)[C@@H]1CO[C@H]1CC[C@@H](c2ccccc2F)CC1 [Example 23, methyl (2R,3S,5R)-3-((N,N-dimethylsulfamoyl)amino)-2-((((1s,4S)-4-(2-fluorophenyl)cyclohexyl)oxy)methyl-5-methylpyrrolidine-1-carboxylate]		97	
C[C@@H]1C[C@H](NS(=O)(=O)N(C)C)[C@H](CO[C@H]2CC[C@@H](c3cc(F)ccc3F)CC2)N1C(=O)OCC(F)F [Example 22, 2,2-difluoroethyl (2R,3S,5R)-2-((((1r,4R)-4-(2,5-difluorophenyl)-cyclohexyl)oxy)methyl)-3-((N,N-dimethylsulfamoyl)amino)-5-methylpyrrolidine-1-carboxylate]		100	
COC(=O)N1[C@H](C)C[C@H](NS(=O)(=O)CF)[C@@H]1CO[C@H]1CC[C@@H](c2cccc(F)c2)CC1 [Example 26, methyl (2R,3S,5R)-3-((fluoromethyl)sulfonamido)-2-((((1s,4S)-4-(3-fluorophenyl)cyclohexyl)oxy)methyl)-5-methylpyrrolidine-1-carboxylate]		98	102
COC[C@@H]1C[C@H](NS(=O)(=O)N(C)C)[C@H](CO[C@H]2CC[C@@H](c3cccc(F)c3)CC2)N1C(=O)OC [Example 51, methyl (2R,3S,5S)-3-((N,N-dimethylsulfamoyl)amino)-2-((((CIS)-4-(3-fluorophenyl)cyclohexyl)-oxy)methyl)-5-(methoxymethyl)pyrrolidine-1-carboxylate]		101	
CNS(=O)(=O)N[C@H]1C[C@@H](C)N(C(=O)OCC(F)F)[C@H]1CO[C@H]1CC[C@@H](c2ccccc2)CC1 [Example 16, 2,2-difluoroethyl (2R,3S,5R)-5-methyl-3-((N-methylsulfamoyl)amino)-2-((((1s,4S)-4-phenylcyclohexyl)oxy)methyl)pyrrolidine-1-carboxylate]			101
COC(=O)N1[C@H](C)C[C@H](NS(=O)(=O)N(C)C)[C@@H]1COC1CCC(C(F)(F)F)CC1 (stereo partly drawn) [Example 11, methyl (2R,3S,5R)-3-((N,N-dimethylsulfamoyl)amino)-5-methyl-2-(((4-(trifluoromethyl)cyclohexyl)oxy)methyl)pyrrolidine-1-carboxylate]		99	
CCNC(=O)N1[C@H](C)C[C@H](NS(C)(=O)=O)[C@@H]1COC1CCC(C(F)(F)F)CC1 (stereo partly drawn) [Example 2, (2R,3S,5R)—N-ethyl-5-methyl-3-(methylsulfonamido)-2-(((4-(trifluoromethyl)-cyclohexyl)oxy)methyl)pyrrolidine-1-carboxamide]		100	

Now from value to molecule:

IC50 [nM]	Emax [%]	Emax (%)	SMILES
	98		COC(=O)N1[C@H](C)C[C@H](NS(=O)(=O)CF)[C@@H]1COC1CCC(c2cccc(F)c2)CC1 (stereo partly drawn) [Example 62, methyl (2R,3S,5R)-3-((fluoromethyl)sulfona-mido)-2-((((1s,4S)-4-(3-fluorophenyl)cyclohex-yl)oxy)methyl)-5-methylpyrrolidine-1-carboxylate]
	101		COC(=O)N1[C@H](C)C[C@H](NS(C)(=O)=O)[C@@H]1CO[C@H]1CC[C@@H](c2ccc(F)c(F)c2)CC1 [Example 73, Methyl (2R,3S,5R)-2-((((1s,4S)-4-(3,4-difluorophenyl)cyclohexyl)oxy)methyl)-5-methyl-3-(methylsulfonamido)pyrrolidine-1-carboxylate]
		102	COC(=O)N1[C@H](C)C[C@H](NS(C)(=O)=O)[C@@H]1CO[C@H]1CC[C@@H](c2cc(F)cc(F)c2)CC1 [Example 71, Methyl (2R,3S,5R)-2-((((1s,4S)-4-(3,5-difluorophenyl)cyclohexyl)oxy)methyl)-5-methyl-3-(methylsulfonamido)pyrrolidine-1-carboxylate]
		100	COCCN(C)S(=O)(=O)N[C@H]1C[C@@H](C)N(C(=O)OC)[C@H]1CO[C@H]1CC[C@@H](c2cccc(F)c2)CC1 [Example 55, methyl (2R,3S,5R)-2-((((1s,4S)-4-(3-fluorophenyl)cyclohex-yl)oxy)methyl)-3-((N-(2-methoxyethyl)-N-methylsulfamoyl)amino)-5-methylpyrrolidine-1-carboxylate]
	100		CCc1ccccc1[C@H]1CC[C@H](OC[C@H]2[C@@H](NS(=O)(=O)N(C)C)C[C@@H](C)N2C(=O)OC)CC1 [Example 66, methyl (2R,3S,5R)-3-((N,N-dimethylsulfamoyl)amino)-2-((((1r,4R)-4-(2-ethylphenyl)cyclohexyl)oxy)methyl)-5-methylpyrrolidine-1-carboxylate]
		99	COC(=O)N1[C@H](C)C[C@H](NS(C)(=O)=O)[C@@H]1CO[C@H]1CC[C@@H](c2ncccn2)CC1 [Example 70, Methyl (2R,3S,5R)-5-methyl-3-(methylsulfonamido)-2-((((1s,4S)-4-(pyrimidin-2-yl)cyclohexyl)oxy)methyl)pyrrolidine-1-carboxylate]
		99	COC(=O)N1[C@H](C)C[C@H](NS(=O)(=O)N(C)CCOC(F)(F)F)[C@@H]1CO[C@H]1CC[C@@H](c2cccc(F)c2)CC1 [Example 59, methyl (2R,3S,5R)-2-((((1s,4S)-4-(3-fluorophenyl)cyclohex-yl)oxy)methyl)-5-methyl-3-((N-methyl-N-(2-(trifluoromethoxy)ethyl)sulfamoyl)amino)pyrro-lidine-1-carboxylate]
